Experimental data published in ChEMBL document CHEMBL4002567, “Rational design and synthesis of 1,5-disubstituted tetrazoles as potent inhibitors of the MDM2-p53 interaction” (Eur J Med Chem, 2017).

Columns and labels:
[1] = target: T1, Protein Mdm4 (Homo sapiens, UniProt O15151)
T1 sequence (O15151 whole entry): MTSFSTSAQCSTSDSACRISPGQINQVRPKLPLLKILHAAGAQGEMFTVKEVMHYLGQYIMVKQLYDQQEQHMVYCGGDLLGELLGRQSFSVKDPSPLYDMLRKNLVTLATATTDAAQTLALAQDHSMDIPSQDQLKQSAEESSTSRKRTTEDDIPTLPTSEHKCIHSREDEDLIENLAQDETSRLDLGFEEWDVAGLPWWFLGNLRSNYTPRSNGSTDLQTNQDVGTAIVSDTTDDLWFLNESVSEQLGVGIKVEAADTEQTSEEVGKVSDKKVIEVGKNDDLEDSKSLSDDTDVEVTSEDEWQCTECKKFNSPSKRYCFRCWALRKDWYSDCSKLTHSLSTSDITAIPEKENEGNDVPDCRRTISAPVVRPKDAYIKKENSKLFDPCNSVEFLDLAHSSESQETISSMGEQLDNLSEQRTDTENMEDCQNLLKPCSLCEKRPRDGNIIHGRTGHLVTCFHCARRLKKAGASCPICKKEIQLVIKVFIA

[2] = target: E3 ubiquitin-protein ligase Mdm2 (Homo sapiens, UniProt Q00987)
Sequence of E3 ubiquitin-protein ligase Mdm2 (Q00987 whole entry): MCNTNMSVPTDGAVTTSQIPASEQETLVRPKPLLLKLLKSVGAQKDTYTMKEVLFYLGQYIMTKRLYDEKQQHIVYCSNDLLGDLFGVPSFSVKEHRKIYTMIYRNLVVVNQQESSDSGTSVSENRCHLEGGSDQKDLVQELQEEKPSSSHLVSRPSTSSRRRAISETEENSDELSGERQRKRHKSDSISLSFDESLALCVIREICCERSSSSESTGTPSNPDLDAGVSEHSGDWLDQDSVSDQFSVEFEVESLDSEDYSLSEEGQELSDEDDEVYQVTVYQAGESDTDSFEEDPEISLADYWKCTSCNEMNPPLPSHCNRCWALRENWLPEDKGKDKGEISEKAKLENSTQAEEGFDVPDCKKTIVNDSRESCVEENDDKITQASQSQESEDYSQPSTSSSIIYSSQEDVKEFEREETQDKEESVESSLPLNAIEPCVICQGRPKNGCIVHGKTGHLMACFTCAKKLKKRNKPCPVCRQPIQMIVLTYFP

Structure (SMILES)	Ki [1]	Ki [2]	Ki ([2]; read-out: Ki) [µM]
O=C(O)c1[nH]c2cc(Cl)ccc2c1C(NCC1CCCCC1)c1nnnn1Cc1ccc(OCc2ccccc2Cl)cc1 (configuration not stated)	Not Active		
CCOC(=O)c1[nH]c2cc(Cl)ccc2c1C(NC1CCCC1)c1nnnn1-c1cccc(Oc2ccccc2)c1 (configuration not stated)	Not Active	Not Active	
O=C(O)c1[nH]c2cc(Cl)ccc2c1C(NC1CCCCC1)c1nnnn1-c1ccc(OCc2ccccc2)cc1 (configuration not stated)	Not Active		
CCOC(=O)c1[nH]c2cc(Cl)ccc2c1C(NCc1ccc(Cl)cc1)c1nnnn1Cc1ccc(Cl)cc1 (configuration not stated)	Not Active	Not Active	
CCOC(=O)c1[nH]c2cc(Cl)ccc2c1C(NCC1CCCCC1)c1nnnn1Cc1ccc(Cl)cc1 (configuration not stated)	Not Active	Not Active	
CCCCCNC(c1c(C(=O)O)[nH]c2cc(Cl)ccc12)c1nnnn1-c1ccc(F)c(Cl)c1 (configuration not stated)	Not Active		
O=C(O)c1[nH]c2cc(Cl)ccc2c1C(NC1CCCCCC1)c1nnnn1-c1cccc(OCc2ccccc2)c1 (configuration not stated)	Not Active		
CCCCCNC(c1c(C(=O)OCC)[nH]c2cc(Cl)ccc12)c1nnnn1-c1ccc(OCc2c(Cl)cccc2Cl)cc1 (configuration not stated)	Not Active	Not Active	
CCOC(=O)c1[nH]c2cc(Cl)ccc2c1C(NCc1ccc(Cl)cc1)c1nnnn1Cc1ccc(OCc2ccccc2Br)cc1 (configuration not stated)	Not Active	Not Active	
CCOC(=O)c1[nH]c2cc(Cl)ccc2c1C(NCC1CCCCC1)c1nnnn1-c1ccc(OCc2ccccc2Br)cc1 (configuration not stated)	Not Active	Not Active	
O=C(O)c1[nH]c2cc(Cl)ccc2c1C(NCC1CCCCC1)c1nnnn1Cc1ccc(OCc2ccccc2F)cc1 (configuration not stated)	Not Active		
O=C(O)c1[nH]c2cc(Cl)ccc2c1C(NC1CCCC1)c1nnnn1-c1cccc(OCc2ccccc2)c1 (configuration not stated)	Not Active		
CCCCCNC(c1c(C(=O)OCC)[nH]c2cc(Cl)ccc12)c1nnnn1-c1ccc(C(C)C)cc1 (configuration not stated)	Not Active	Not Active	
CCOC(=O)c1[nH]c2cc(Cl)ccc2c1C(NC1CCCCC1)c1nnnn1-c1cccc(OCc2ccccc2)c1 (configuration not stated)	Not Active	Not Active	
O=C(O)c1[nH]c2cc(Cl)ccc2c1C(NCC1CCCCC1)c1nnnn1Cc1ccc(Cl)cc1 (configuration not stated)	Not Active		
O=C(O)c1[nH]c2cc(Cl)ccc2c1C(NCC1CCCCC1)c1nnnn1-c1ccc(OCc2c(Cl)cccc2Cl)cc1 (configuration not stated)	Not Active		
CCOC(=O)c1[nH]c2cc(Cl)ccc2c1C(NC1CCCCCC1)c1nnnn1-c1cccc(Oc2ccccc2)c1 (configuration not stated)	Not Active	Not Active	
CCCCCNC(c1c(C(=O)O)[nH]c2cc(Cl)ccc12)c1nnnn1Cc1ccc(OCc2ccccc2Cl)cc1 (configuration not stated)	Not Active		
CCCCCNC(c1c(C(=O)OCC)[nH]c2cc(Cl)ccc12)c1nnnn1-c1ccc(OCc2ccccc2Br)cc1 (configuration not stated)	Not Active	Not Active	
CCOC(=O)c1[nH]c2cc(Cl)ccc2c1C(NC1CCCCC1)c1nnnn1-c1ccc(OCc2ccccc2)cc1 (configuration not stated)	Not Active	Not Active	

Structure (SMILES)	Ki [1]	Ki [2]	Ki ([2]; read-out: Ki) [µM]
O=C(O)c1[nH]c2cc(Cl)ccc2c1C(NCC1CCCCC1)c1nnnn1-c1ccc(OCc2ccc(Br)cc2)cc1 (configuration not stated)	Not Active		
CCOC(=O)c1[nH]c2cc(Cl)ccc2c1C(NCC1CCCCC1)c1nnnn1-c1ccc(OCc2ccc(Br)cc2)cc1 (configuration not stated)	Not Active	Not Active	
O=C(O)c1[nH]c2cc(Cl)ccc2c1C(NC1CCCC1)c1nnnn1-c1cccc(Oc2ccccc2)c1 (configuration not stated)	Not Active		
CCOC(=O)c1[nH]c2cc(Cl)ccc2c1C(NCC1CCCCC1)c1nnnn1-c1ccc(F)c(Cl)c1 (configuration not stated)	Not Active	Not Active	
CCOC(=O)c1[nH]c2cc(Cl)ccc2c1C(NC1CCCCC1)c1nnnn1-c1cccc(Oc2ccccc2)c1 (configuration not stated)	Not Active	Not Active	
CCCCCNC(c1c(C(=O)OCC)[nH]c2cc(Cl)ccc12)c1nnnn1-c1ccc(Cl)cc1 (configuration not stated)	Not Active	Not Active	
O=C(O)c1[nH]c2cc(Cl)ccc2c1C(NC1CCCCC1)c1nnnn1-c1cccc(Oc2ccccc2)c1 (configuration not stated)	Not Active		
CCCCCNC(c1c(C(=O)O)[nH]c2cc(Cl)ccc12)c1nnnn1Cc1ccc(OCc2ccccc2Br)cc1 (configuration not stated)	Not Active		
O=C(O)c1[nH]c2cc(Cl)ccc2c1C(NC1CCCC1)c1nnnn1-c1ccc(OCc2ccccc2)cc1 (configuration not stated)	Not Active		
O=C(O)c1[nH]c2cc(Cl)ccc2c1C(NC1CCC1)c1nnnn1-c1ccc(OCc2ccccc2Br)cc1 (configuration not stated)	Not Active		
CCOC(=O)c1[nH]c2cc(Cl)ccc2c1C(NCC1CCCCC1)c1nnnn1Cc1ccc(OCc2ccccc2Cl)cc1 (configuration not stated)	Not Active	Not Active	
CCOC(=O)c1[nH]c2cc(Cl)ccc2c1C(NC1CCCCCC1)c1nnnn1-c1ccc(OCc2ccccc2)cc1 (configuration not stated)	Not Active	Not Active	
CCCCCNC(c1c(C(=O)OCC)[nH]c2cc(Cl)ccc12)c1nnnn1-c1ccc(F)c(Cl)c1 (configuration not stated)	Not Active	Not Active	
CC(C)c1ccc(-n2nnnc2C(NCC2CCCCC2)c2c(C(=O)O)[nH]c3cc(Cl)ccc23)cc1 (configuration not stated)	Not Active		
CCCCCNC(c1c(C(=O)OCC)[nH]c2cc(Cl)ccc12)c1nnnn1Cc1ccc(Cl)cc1 (configuration not stated)	Not Active	Not Active	
O=C(O)c1[nH]c2cc(Cl)ccc2c1C(NCC1CCCCC1)c1nnnn1-c1ccc(F)c(Cl)c1 (configuration not stated)	Not Active		
CCOC(=O)c1[nH]c2cc(Cl)ccc2c1C(NCC1CCCCC1)c1nnnn1-c1ccc(OCc2c(Cl)cccc2Cl)cc1 (configuration not stated)	Not Active	Not Active	
O=C(O)c1[nH]c2cc(Cl)ccc2c1C(NC1CCCCCC1)c1nnnn1-c1ccc(OCc2ccccc2)cc1 (configuration not stated)	Not Active		
O=C(O)c1[nH]c2cc(Cl)ccc2c1C(NC1C2CC3CC(C2)CC1C3)c1nnnn1-c1ccc(OCc2ccccc2Br)cc1 (configuration not stated)	Not Active		
CCOC(=O)c1[nH]c2cc(Cl)ccc2c1C(NC1CCCCCC1)c1nnnn1-c1cccc(OCc2ccccc2)c1 (configuration not stated)	Not Active	Not Active	

Structure (SMILES)	Ki [1]	Ki [2]	Ki ([2]; read-out: Ki) [µM]
CCCCCNC(c1c(C(=O)O)[nH]c2cc(Cl)ccc12)c1nnnn1-c1ccc(OCc2ccc(Br)cc2)cc1 (configuration not stated)	Not Active		
O=C(O)c1[nH]c2cc(Cl)ccc2c1C(NCc1ccc(Cl)cc1)c1nnnn1Cc1ccc(Cl)cc1 (configuration not stated)	Not Active		
CCOC(=O)c1[nH]c2cc(Cl)ccc2c1C(NC1CCC1)c1nnnn1-c1ccc(OCc2ccccc2Br)cc1 (configuration not stated)	Not Active	Not Active	
CCCCCNC(c1c(C(=O)OCC)[nH]c2cc(Cl)ccc12)c1nnnn1Cc1ccc(OCc2ccccc2F)cc1 (configuration not stated)	Not Active		
CCOC(=O)c1[nH]c2cc(Cl)ccc2c1C(NCC1CCCCC1)c1nnnn1Cc1ccc(OCc2ccccc2Br)cc1 (configuration not stated)	Not Active	Not Active	
CCCCCNC(c1c(C(=O)O)[nH]c2cc(Cl)ccc12)c1nnnn1-c1ccc(OCc2c(Cl)cccc2Cl)cc1 (configuration not stated)	Not Active		
O=C(O)c1[nH]c2cc(Cl)ccc2c1C(NC1CCCCCC1)c1nnnn1-c1cccc(Oc2ccccc2)c1 (configuration not stated)	Not Active		
O=C(O)c1[nH]c2cc(Cl)ccc2c1C(NC1CCCCC1)c1nnnn1-c1cccc(OCc2ccccc2)c1 (configuration not stated)	Not Active		
O=C(O)c1[nH]c2cc(Cl)ccc2c1C(NCc1ccc(Cl)cc1)c1nnnn1Cc1ccc(OCc2ccccc2Br)cc1 (configuration not stated)	Not Active		
CCCCCNC(c1c(C(=O)O)[nH]c2cc(Cl)ccc12)c1nnnn1-c1ccc(OCc2ccccc2Br)cc1 (configuration not stated)	Not Active		
O=C(O)c1[nH]c2cc(Cl)ccc2c1C(NCC1CCCCC1)c1nnnn1Cc1ccc(OCc2ccccc2Br)cc1 (configuration not stated)	Not Active		
CCCCCNC(c1c(C(=O)O)[nH]c2cc(Cl)ccc12)c1nnnn1Cc1ccc(Cl)cc1 (configuration not stated)	Not Active		
CCOC(=O)c1[nH]c2cc(Cl)ccc2c1C(NC1CCCC1)c1nnnn1-c1ccc(OCc2ccccc2)cc1 (configuration not stated)	Not Active	Not Active	
CCOC(=O)c1[nH]c2cc(Cl)ccc2c1C(NCC1CCCCC1)c1nnnn1-c1ccc(Cl)cc1 (configuration not stated)			117
CCCCCNC(c1c(C(=O)O)[nH]c2cc(Cl)ccc12)c1nnnn1-c1ccc(C(C)C)cc1 (configuration not stated)	Not Active		
CCCCCNC(c1c(C(=O)OCC)[nH]c2cc(Cl)ccc12)c1nnnn1-c1ccc(OCc2ccc(Br)cc2)cc1 (configuration not stated)	Not Active	Not Active	
CCCCCNC(c1c(C(=O)OCC)[nH]c2cc(Cl)ccc12)c1nnnn1Cc1ccc(OCc2ccccc2Br)cc1 (configuration not stated)	Not Active	Not Active	
CCCCCNC(c1c(C(=O)O)[nH]c2cc(Cl)ccc12)c1nnnn1-c1ccc(Cl)cc1 (configuration not stated)	Not Active		
O=C(O)c1[nH]c2cc(Cl)ccc2c1C(NCC1CCCCC1)c1nnnn1-c1ccc(OCc2ccccc2Br)cc1 (configuration not stated)	Not Active		
CCCCCNC(c1c(C(=O)OCC)[nH]c2cc(Cl)ccc12)c1nnnn1Cc1ccc(OCc2ccccc2Cl)cc1 (configuration not stated)	Not Active	Not Active	
